Eleven compounds from patent US10155754B2, “Substituted 2-imino-1,3-thiazolidin-4-ones as N-arachidonoylethanolamine cellular uptake inhibitors” (UNIVERSITAT BERN, priority 2014, dated 2018) can be followed below.

Where only a bound is given, the exact number is not on record here.

Assay [1] deals with AEA cellular uptake (U937 cells). In words: [3H]-AEA cellular uptake inhibition in U937 cells. The format is cell-based. To be noted: Homo sapiens, U-937, U937 cells, final 100 nM AEA with 0.5 nM [3H]-AEA, 15 min at 37° C.; read-out: AEA uptake IC50. Summed up:
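U937 cells (0.5×10^6 per sample) pre-incubated with compound (100 pM–100 μM, triplicates) for 15 min at 37 °C, then given 100 nM AEA including 0.5 nM [3H]-AEA for 15 min. Filtration, washing and scintillation counting of cell-associated radioactivity; IC50 by four-parameter nonlinear regression.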

The next assay addresses T1, FAAH (Homo sapiens, UniProt O00519).
T1 construct: endogenous in cells; host or cells: U937 cell homogenate
T1 sequence (O00519 1-579): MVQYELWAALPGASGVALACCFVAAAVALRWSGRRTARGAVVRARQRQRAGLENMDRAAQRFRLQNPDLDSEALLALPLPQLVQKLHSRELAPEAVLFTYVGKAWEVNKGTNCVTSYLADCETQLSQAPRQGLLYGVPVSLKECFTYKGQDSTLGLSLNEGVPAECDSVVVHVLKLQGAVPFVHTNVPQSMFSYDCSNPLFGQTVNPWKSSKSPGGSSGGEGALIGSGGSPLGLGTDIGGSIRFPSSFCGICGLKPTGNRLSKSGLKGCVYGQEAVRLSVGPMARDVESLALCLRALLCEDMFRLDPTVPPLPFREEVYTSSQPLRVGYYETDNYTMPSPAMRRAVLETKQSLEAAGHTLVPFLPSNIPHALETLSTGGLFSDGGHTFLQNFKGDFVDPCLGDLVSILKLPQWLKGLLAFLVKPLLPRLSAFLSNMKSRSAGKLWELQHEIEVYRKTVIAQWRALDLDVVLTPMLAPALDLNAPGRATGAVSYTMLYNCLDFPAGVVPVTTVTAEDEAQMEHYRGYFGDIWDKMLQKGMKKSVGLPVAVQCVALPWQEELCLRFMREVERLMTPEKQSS
In words: FAAH activity: hydrolysis of [3H]-AEA in U937 cell homogenates. The settings on record: [3H]-AEA hydrolysis, final 100 nM AEA, read-out: FAAH inhibition IC50. The format is biochemical. Here is the method: Hydrolysis of [^3H]-AEA by FAAH was determined as previously described in cell homogenates of U937 cells (0.18 mg protein) (Omeir et al., 1999, Biochem Biophys Res Commun, 264, 316-20; Mor et al., 2004, J Med Chem, 47, 4998-5008). Protein amounts of cell homogenates corresponded to 0.5×10^6 cells (U937), to assure best possible comparability of IC50 values as used for the AEA cellular uptake assays. URB597 was used as positive control. Protein quantification was performed using a BCA assay (Thermo Scientific). Enzyme activity was assessed by addition of vehicle or compounds in 10 μL DMSO to 490 μL homogenate in 10 mM Tris HCl, 1 mM EDTA, 0.1% (w/v) BSA fatty acid free, pH=8 and incubation for 15 min at 37° C. After, a mixture of AEA plus [ethanolamine-1-^3H]-AEA (0.5 nM) at final 100 nM was added to the homogenates and incubated for 15 min at 37° C. The reaction was stopped by addition of 1 mL ice-cold CHCl3:MeOH (1:1) followed by vigorous vortexing. Phase separation was achieved by centrifugation at 10'000×g at 4° C. for 10 min. Radioactivity of the separated aqueous phase (upper phase) containing [^3H-ethanolamine] or [^3H-glycerol] was measured by liquid scintillation counting on a Tri-Carb 2100 TR liquid scintillation analyzer after addition of 3.5 mL Ultima Gold scintillation cocktail (PerkinElmer Life Sciences). Results are expressed as hydrolysis of tritium substrate in percent of vehicle treated control. IC50 values were calculated by GraphPad®. Data are reported as means of n=3 independent experiments performed in triplicates.

What is called IC50 is the midpoint of a concentration-inhibition curve. For `COc1ccc(C/N=C2\S/C(=C\c3ccc4c(c3)OCCO4)C(=O)N2C2CCCCC2)cc1` [24_Q_I, (2Z,5Z)-2-(4-methoxybenzylimino)-3-cyclohexyl-5-((2,3-dihydrobenzo[b][1,4]dioxin-6-yl)methylene)thiazolidin-4-one], the IC50 in assay [1] stood at 35 nM; on FAAH, 37 nM.
For `COc1ccc(C/N=C2\S/C(=C\c3ccc4c(c3)OCCO4)C(=O)N2c2ccc(Cl)cc2)cc1` [24_Q_L, (2Z,5Z)-2-(4-methoxybenzylimino)-3-(4-chlorophenyl)-5-((2,3-dihydrobenzo[b][1,4]dioxin-6-yl)methylene)thiazolidin-4-one], in that order: 85 nM and 813 nM.
For `COc1ccc(C/N=C2\S/C(=C\c3ccc4c(c3)OCCO4)C(=O)N2c2ccccc2)cc1` [24_Q_N, (2Z,5Z)-2-(4-methoxybenzylimino)-5-((2,3-dihydrobenzo[b][1,4]dioxin-7-yl)methylene)-3-phenylthiazolidin-4-one], in that order: 373 nM and 437 nM.
For `COc1ccc(C/N=C2\S/C(=C\c3ccc4c(c3)OCCO4)C(=O)N2CC(C)C)cc1` [24_Q_X, (2Z,5Z)-2-(4-methoxybenzylimino)-5-((2,3-dihydrobenzo[b][1,4]dioxin-6-yl)methylene)-3-isobutylthiazolidin-4-one], the figures for the IC50 (in assay [1]; at FAAH) were 137 nM and 427 nM, respectively.
With `Cc1ccc(/N=C2\S/C(=C\c3ccc4c(cnn4C)c3)C(=O)N2C2CCCCC2)cc1` [28_A_I, (2Z,5Z)-2-(p-tolylimino)-3-cyclohexyl-5-((1-methyl-1H-indazol-5-yl)methylene)thiazolidin-4-one], the IC50 was 389 nM in assay [1] and greater than 100000 nM at FAAH.
For `Cc1ccc(/N=C2\S/C(=C\c3ccc4c(cnn4C)c3)C(=O)N2CC(C)C)cc1` [28_A_X, (2Z,5Z)-2-(p-tolylimino)-3-isobutyl-5-((1-methyl-1H-indazol-5-yl)methylene)thiazolidin-4-one], in that order: 351 nM and greater than 100000 nM.
In the same order, the values of `Cc1ccc(/N=C2\S/C(=C\c3ccc4ncsc4c3)C(=O)N2C2CCCCC2)cc1` [32_A_I, (2Z,5Z)-2-(p-tolylimino)-5-((benzo[d]thiazol-6-yl)methylene)-3-cyclohexylthiazolidin-4-one] are 341 nM and greater than 100000 nM.
In the same order, the values of `Cc1ccc(/N=C2\S/C(=C\c3ccc4ncsc4c3)C(=O)N2CC(C)C)cc1` [32_A_X, (2Z,5Z)-2-(p-tolylimino)-5-((benzo[d]thiazol-6-yl)methylene)-3-isobutylthiazolidin-4-one] are 327 nM and greater than 100000 nM.
On to `O=C1/C(=C/c2ccc3[nH]cnc3c2)S/C(=N\c2ccccc2)N1c1ccccc1` [compound 04, (2Z,5Z)-5-((1H-benzo[d]imidazol-5-yl)methylene)-3-phenyl-2-(phenylimino)thiazolidin-4-one], for which the figures for the half-inhibitory concentration (IC50) (in assay [1]; at FAAH) were 194 nM and greater than 100000 nM, respectively.
For `O=C1/C(=C/c2ccc3c(c2)OCCO3)S/C(=N\c2ccccc2)N1c1ccccc1` [compound 24, (2Z,5Z)-5-((2,3-dihydrobenzo[b][1,4]dioxin-6-yl)methylene)-3-phenyl-2-(phenylimino)thiazolidin-4-one], in that order: 817 nM and greater than 100000 nM.
For `O=C1/C(=C/c2ccc3ncsc3c2)S/C(=N\c2ccccc2)N1c1ccccc1` [compound 32, (2Z,5Z)-5-((benzo[d]thiazol-6-yl)methylene)-3-phenyl-2-(phenylimino)thiazolidin-4-one], the IC50 is 291 nM in assay [1] and greater than 100000 nM on FAAH.
